According to ChEMBL document CHEMBL1147415, “Inhibition kinetics of carba- and C-fucosyl analogues of GDP-fucose against fucosyltransferase V: implication for the reaction mechanism” (Bioorg Med Chem Lett, 2004):
pKi: −log10 of the molar value.

Experiments:
[1] = biological target: T1, 4-galactosyl-N-acetylglucosaminide 3-alpha-L-fucosyltransferase FUT5 (Homo sapiens, UniProt Q11128); assay: Inhibition of Fucosyltransferase 5 by the compound was evaluated; Weak competitive inhibition
T1 sequence (Q11128 whole entry): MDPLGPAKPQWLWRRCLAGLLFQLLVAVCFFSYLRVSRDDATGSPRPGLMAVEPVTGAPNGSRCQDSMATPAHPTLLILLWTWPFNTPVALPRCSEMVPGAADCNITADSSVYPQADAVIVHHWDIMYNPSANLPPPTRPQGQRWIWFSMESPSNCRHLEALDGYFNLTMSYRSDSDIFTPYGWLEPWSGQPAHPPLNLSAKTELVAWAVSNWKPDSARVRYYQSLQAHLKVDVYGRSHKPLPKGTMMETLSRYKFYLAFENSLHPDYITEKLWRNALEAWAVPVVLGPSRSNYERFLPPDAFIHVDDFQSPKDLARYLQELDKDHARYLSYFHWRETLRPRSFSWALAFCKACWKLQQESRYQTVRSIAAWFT

[2] = biological target: T1, 4-galactosyl-N-acetylglucosaminide 3-alpha-L-fucosyltransferase FUT5; assay: Inhibition of Fucosyltransferase 5 by the compound was evaluated; Competitive inhibition

Row | pKi [1] | pKi [2] | Structure (SMILES)
1 | 3.05 |  | CC1OC(CP(=O)(O)OP(=O)(O)OC[C@H]2OC(n3cnc4c(=O)[nH]c(N)nc43)[C@H](O)[C@@H]2O)C(O)C(O)C1O (some centres not stated)
2 |  | 4.17 | CC1CC(OP(=O)(O)OP(=O)(O)OC[C@H]2OC(n3cnc4c(O)nc(N)nc43)[C@H](O)[C@@H]2O)C(O)C(O)C1O (some centres not stated)
